The record followed here is publication PMC4440778, “Structure-Activity Relationship and Mode of Action of a Frog Secreted Antibacterial Peptide B1CTcu5 Using Synthetically and Modularly Modified or Deleted (SMMD) Peptides” (PLoS ONE, 2015).

Values after ≈ are worked out from the molar mass of the structure shown. Where a SMILES comes first, the peptide text is derived from it. Bridges are numbered along the chain shown (N, C = ends). Where no end group is shown, it is not given here. [ ]: non-standard residue; d: D form. The star is where a group is joined. Acm = CC(=O)NC*

Data set [1] concerns human embryonic kidney (HEK) cells. Format: cell-based. On the procedure:
(§1) Cytotoxicity of the peptides against human embryonic kidney (HEK) cells, skin cancer cells (A431) and PBMCs were evaluated by 3-[4, 5-dimethylthiazol-2-yl]-2, 5-diphenyl tetrazolium bromide (MTT) assay. Peptide solution prepared in less than 0.2% DMSO (10–100 μg/ml) was treated with initially seeded 10,000 cells per well for HEK and A431 cells. To assess peptide cytotoxicity in PBMCs, MTT assay was performed by adding different concentrations of the respective peptides to 96 well plate containing 40,000 PBMCs per well, in triplicate. The conversion of MTT into […] was determined by measuring the absorbance at 570 nm.

A further data set has as its system E. coli MG 1655. Conditions: MG 1655, 24 h.
For the next data set, the system named is S. aureus ATCC 9542. Conditions: ATCC 9542, 24 h.
The next data set relates to skin cancer cells (A431). It is filed as cell-based, human. On the procedure:
as §1

The subject of another data set is B. coagulans ATCC 7050. Conditions: ATCC 7050, 24 h.
The next data set concerns B. subtilis MTCC 14416. Conditions: MTCC 14416, 24 h.
The subject of another data set is P. aeruginosa ATCC 27853. Conditions: ATCC 27853, 24 h.
Data set [2] deals with V. cholerae (clinical isolates). The following applies: 24 h.
Protocol: (§2) Bacterial cultures were grown in Luria Bertani broth (Hi-media) by overnight incubation at 37°C with constant shaking. Microbial cultures having 10^6 CFU/ml were made from OD 0.6 culture. Respective peptide stock concentration (1mg/ml) were prepared in sterile water and diluted in LB broth to make concentrations ranging from 1–200 μg/ml. Bacterial culture (50 μl) was treated with 50 μl of individual peptide amide solution of various concentrations and incubated for 24 h at 37°C with constant shaking in a 96 well microtitre plate. […] The minimum inhibitory concentration (MIC) was taken as the dose at which 100% of growth inhibition was observed and was calculated from the graph. MIC was calculated from independent experiments performed in triplicate.
A further data set has as its system PBMCs. It is filed as cell-based, human. On the procedure: Peripheral blood mononuclear cells (PBMCs) were isolated from heparanised blood of healthy individuals. Five milliliter of blood was diluted with PBS (pH 7.4), and layered above 5 ml of histopaque and centrifuged at 1200 rpm for 30 min at room temperature. The upper layer was discarded, and the interphase containing PBMCs were carefully withdrawn and washed with PBS. It was centrifuged at 1500 rpm at room temperature for 10 min, the pellets were resuspended in RPMI medium and the cells were counted.
as §1

Usually MIC stands for the least concentration at which growth counts as inhibited. Low readings indicate inhibition by little substance, high ones a need for much substance.

Protocol for B. coagulans ATCC 7050: as §2
Protocol for B. subtilis MTCC 14416: as §2
Protocol for E. coli MG 1655: as §2
Protocol for P. aeruginosa ATCC 27853: as §2
Protocol for S. aureus ATCC 9542: as §2

On to `CC[C@H](C)[C@@H]1NC(=O)[C@H](CCCCN)NC(=O)[C@@H](NC(=O)[C@H](CC(C)C)NC(=O)[C@@H](NC(=O)[C@H](CCC(N)=O)NC(=O)[C@@H]2CCCN2C(=O)[C@H](CC(C)C)NC(=O)[C@H](Cc2ccccc2)NC(=O)[C@H](CC(N)=O)NC(=O)[C@H](C)NC(=O)[C@H](C)NC(=O)[C@H](CC(C)C)NC(=O)CNC(=O)[C@H](C)NC(=O)[C@@H](NC(=O)[C@@H](N)CCCNC(=N)N)[C@@H](C)CC)[C@@H](C)CC)CSSC[C@@H](C(N)=O)NC(=O)[C@H](CCCCN)NC(=O)[C@H](CCCNC(=N)N)NC(=O)[C@H](C)NC1=O` [B1CTcu5R] (H-RIAGLAANFLPQILCKIARKC-NH2; disulfide 15-21), for which the “CC 50” value in data set [1] is greater than 100 µg/mL; with skin cancer cells (A431), greater than 100 µg/mL; in the data set on PBMCs it was 96.1 ± 1.22 µg/mL (≈ 41.8 µM). Also, the MIC with E. coli MG 1655 was 25 µg/mL (≈ 10.9 µM); against S. aureus ATCC 9542, 25 µg/mL (≈ 10.9 µM); against B. coagulans ATCC 7050, 12.5 µg/mL (≈ 5.44 µM); against B. subtilis MTCC 14416 it was 50 µg/mL (≈ 21.8 µM); against P. aeruginosa ATCC 27853 it was greater than 100 µg/mL; in data set [2], 12.5 µg/mL (≈ 5.44 µM).

In the case of `CC[C@H](C)[C@@H]1NC(=O)[C@H](CCCCN)NC(=O)[C@@H](NC(=O)[C@H](CC(C)C)NC(=O)[C@@H](NC(=O)[C@H](CCC(N)=O)NC(=O)[C@@H]2CCCN2C(=O)[C@H](CC(C)C)NC(=O)[C@H](Cc2ccccc2)NC(=O)[C@H](CC(N)=O)NC(=O)[C@H](C)NC(=O)[C@H](C)NC(=O)[C@H](CC(C)C)NC(=O)CN)[C@@H](C)CC)CSSC[C@@H](C(N)=O)NC(=O)[C@H](CCCCN)NC(=O)[C@H](CCCNC(=N)N)NC(=O)[C@H](C)NC1=O` [B1CTcu5-LIA] (H-GLAANFLPQILCKIARKC-NH2; disulfide 12-18), the MIC in the data set on E. coli MG 1655 is 100 µg/mL (≈ 51.1 µM); in the data set with S. aureus ATCC 9542, 50 µg/mL (≈ 25.6 µM); in the data set on B. coagulans ATCC 7050 it was 100 µg/mL (≈ 51.1 µM); in the data set on B. subtilis MTCC 14416, 100 µg/mL (≈ 51.1 µM); in the data set with P. aeruginosa ATCC 27853, greater than 100 µg/mL; in [2], 50 µg/mL (≈ 25.6 µM).

With `CC[C@H](C)[C@@H]1NC(=O)[C@H](CCCCN)NC(=O)[C@@H](NC(=O)[C@H](CC(C)C)NC(=O)[C@@H](NC(=O)[C@H](CCC(N)=O)NC(=O)[C@@H]2CCCN2C(=O)[C@H](CC(C)C)NC(=O)[C@H](Cc2ccccc2)NC(=O)[C@H](CC(N)=O)NC(=O)[C@H](C)NC(=O)[C@H](C)NC(=O)[C@H](CC(C)C)NC(=O)CNC(=O)[C@H](C)N)[C@@H](C)CC)CSSC[C@@H](C(N)=O)NC(=O)[C@H](CCCCN)NC(=O)[C@H](CCCNC(=N)N)NC(=O)[C@H](C)NC1=O` [B1CTcu5-LI] (H-AGLAANFLPQILCKIARKC-NH2; disulfide 13-19), the minimum inhibitory concentration (MIC) in the data set on E. coli MG 1655 was 50 µg/mL (≈ 24.7 µM); against S. aureus ATCC 9542, 50 µg/mL (≈ 24.7 µM); in the data set on B. coagulans ATCC 7050, 80 µg/mL (≈ 39.5 µM); in the data set on P. aeruginosa ATCC 27853 it was greater than 100 µg/mL; in [2] it was 25 µg/mL (≈ 12.3 µM).

In the case of `CC[C@H](C)[C@H](NC(=O)[C@H](CCCCN)NC(=O)[C@H](CS)NC(=O)[C@H](CC(C)C)NC(=O)[C@@H](NC(=O)[C@H](CCC(N)=O)NC(=O)[C@@H]1CCCN1C(=O)[C@H](CC(C)C)NC(=O)[C@H](Cc1ccccc1)NC(=O)[C@H](CC(N)=O)NC(=O)[C@H](C)NC(=O)[C@H](C)NC(=O)[C@H](CC(C)C)NC(=O)CNC(=O)[C@H](C)NC(=O)[C@@H](NC(=O)[C@@H](N)CC(C)C)[C@@H](C)CC)[C@@H](C)CC)C(=O)N[C@@H](C)C(=O)N[C@@H](CCCNC(=N)N)C(=O)N[C@@H](CCCCN)C(=O)N[C@@H](CS)C(N)=O` [Linear B1CTcu5] (H-LIAGLAANFLPQILCKIARKC-NH2), the minimum inhibitory concentration (MIC) is 25 µg/mL (≈ 11.1 µM) in the data set with E. coli MG 1655; greater than 100 µg/mL with S. aureus ATCC 9542; 12.5 µg/mL (≈ 5.54 µM) against B. coagulans ATCC 7050; 50 µg/mL (≈ 22.2 µM) against B. subtilis MTCC 14416; greater than 100 µg/mL in the data set with P. aeruginosa ATCC 27853; 25 µg/mL (≈ 11.1 µM) in [2].

`CC[C@@H](C)[C@@H](NC(=O)[C@H](N)CC(C)C)C(=O)N[C@H](C)C(=O)NCC(=O)N[C@H](CC(C)C)C(=O)N[C@H](C)C(=O)N[C@H](C)C(=O)N[C@H](CC(N)=O)C(=O)N[C@H](Cc1ccccc1)C(=O)N[C@H](CC(C)C)C(=O)N1CCC[C@@H]1C(=O)N[C@H](CCC(N)=O)C(=O)N[C@@H](C(=O)N[C@H](CC(C)C)C(=O)N[C@@H]1CSSC[C@H](C(N)=O)NC(=O)[C@@H](CCCCN)NC(=O)[C@@H](CCCNC(=N)N)NC(=O)[C@@H](C)NC(=O)[C@@H]([C@H](C)CC)NC(=O)[C@@H](CCCCN)NC1=O)[C@H](C)CC` [DB1CTcu5] (H-[dL][dI][dA]G[dL][dA][dA][dN][dF][dL][dP][dQ][dI][dL][dC][dK][dI][dA][dR][dK][dC]-NH2; disulfide 15-21): the entries for the “CC 50” value (in [1]; in the data set with skin cancer cells (A431); with PBMCs) were greater than 100 µg/mL, greater than 100 µg/mL and 71.4 ± 2.3 µg/mL (≈ 31.7 µM), respectively. Besides, the MIC with E. coli MG 1655 was 25 µg/mL (≈ 11.1 µM); with S. aureus ATCC 9542 it was 50 µg/mL (≈ 22.2 µM); with B. coagulans ATCC 7050 it was 15 µg/mL (≈ 6.66 µM); against B. subtilis MTCC 14416, 50 µg/mL (≈ 22.2 µM); against P. aeruginosa ATCC 27853, greater than 100 µg/mL.

With `CC[C@H](C)[C@H](NC(=O)[C@H](CCCCN)NC(=O)[C@H](CSCNC(C)=O)NC(=O)[C@H](CC(C)C)NC(=O)[C@@H](NC(=O)[C@H](CCC(N)=O)NC(=O)[C@@H]1CCCN1C(=O)[C@H](CC(C)C)NC(=O)[C@H](Cc1ccccc1)NC(=O)[C@H](CC(N)=O)NC(=O)[C@H](C)NC(=O)[C@H](C)NC(=O)[C@H](CC(C)C)NC(=O)CNC(=O)[C@H](C)NC(=O)[C@@H](NC(=O)[C@@H](N)CC(C)C)[C@@H](C)CC)[C@@H](C)CC)C(=O)N[C@@H](C)C(=O)N[C@@H](CCCNC(=N)N)C(=O)N[C@@H](CCCCN)C(=O)N[C@@H](CS)C(N)=O` [B1CTcu5C (Acm)] (H-LIAGLAANFLPQILC(Acm)KIARKC-NH2), the MIC against E. coli MG 1655 is 12.5 µg/mL (≈ 5.37 µM); against S. aureus ATCC 9542 it was 50 µg/mL (≈ 21.5 µM); in the data set on B. coagulans ATCC 7050, 25 µg/mL (≈ 10.7 µM); against B. subtilis MTCC 14416 it was 50 µg/mL (≈ 21.5 µM); against P. aeruginosa ATCC 27853, greater than 100 µg/mL; in [2] it was 50 µg/mL (≈ 21.5 µM).

In the case of LIAGLAANFLPQILCKIARK-NH2 [B1CTcu5-C], the MIC with E. coli MG 1655 is 25 µg/mL; against S. aureus ATCC 9542, 50 µg/mL; against B. coagulans ATCC 7050, 25 µg/mL; in the data set on B. subtilis MTCC 14416, 50 µg/mL; in the data set with P. aeruginosa ATCC 27853, greater than 100 µg/mL; in data set [2], 50 µg/mL.

As to `CC[C@H](C)[C@H](N)C(=O)N[C@@H](C)C(=O)NCC(=O)N[C@@H](CC(C)C)C(=O)N[C@@H](C)C(=O)N[C@@H](C)C(=O)N[C@@H](CC(N)=O)C(=O)N[C@@H](Cc1ccccc1)C(=O)N[C@@H](CC(C)C)C(=O)N1CCC[C@H]1C(=O)N[C@@H](CCC(N)=O)C(=O)N[C@H](C(=O)N[C@@H](CC(C)C)C(=O)N[C@H]1CSSC[C@@H](C(N)=O)NC(=O)[C@H](CCCCN)NC(=O)[C@H](CCCNC(=N)N)NC(=O)[C@H](C)NC(=O)[C@H]([C@@H](C)CC)NC(=O)[C@H](CCCCN)NC1=O)[C@@H](C)CC` [B1CTcu5-L] (H-IAGLAANFLPQILCKIARKC-NH2; disulfide 14-20), the MIC is 50 µg/mL (≈ 23.4 µM) in the data set on E. coli MG 1655; 25 µg/mL (≈ 11.7 µM) in the data set on S. aureus ATCC 9542; 100 µg/mL (≈ 46.7 µM) in the data set on B. coagulans ATCC 7050; 100 µg/mL (≈ 46.7 µM) in the data set with B. subtilis MTCC 14416; greater than 100 µg/mL in the data set with P. aeruginosa ATCC 27853; 25 µg/mL (≈ 11.7 µM) in data set [2].
